The experiment deals with Proprotein convertase subtilisin/kexin type 9 (Homo sapiens, UniProt Q8NBP7). The experiment in a line: Inhibition of PCSK9 binding to LDLR in human HuH7 cells after 5 hrs by On-cell Western assay.
Sequence of Proprotein convertase subtilisin/kexin type 9 (Q8NBP7 31-152 limits assumed): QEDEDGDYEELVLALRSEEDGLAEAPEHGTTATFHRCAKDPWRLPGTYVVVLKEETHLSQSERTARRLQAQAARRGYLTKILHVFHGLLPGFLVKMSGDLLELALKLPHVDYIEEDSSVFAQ
Sequence of Proprotein convertase subtilisin/kexin type 9 (Q8NBP7 153-692 limits assumed): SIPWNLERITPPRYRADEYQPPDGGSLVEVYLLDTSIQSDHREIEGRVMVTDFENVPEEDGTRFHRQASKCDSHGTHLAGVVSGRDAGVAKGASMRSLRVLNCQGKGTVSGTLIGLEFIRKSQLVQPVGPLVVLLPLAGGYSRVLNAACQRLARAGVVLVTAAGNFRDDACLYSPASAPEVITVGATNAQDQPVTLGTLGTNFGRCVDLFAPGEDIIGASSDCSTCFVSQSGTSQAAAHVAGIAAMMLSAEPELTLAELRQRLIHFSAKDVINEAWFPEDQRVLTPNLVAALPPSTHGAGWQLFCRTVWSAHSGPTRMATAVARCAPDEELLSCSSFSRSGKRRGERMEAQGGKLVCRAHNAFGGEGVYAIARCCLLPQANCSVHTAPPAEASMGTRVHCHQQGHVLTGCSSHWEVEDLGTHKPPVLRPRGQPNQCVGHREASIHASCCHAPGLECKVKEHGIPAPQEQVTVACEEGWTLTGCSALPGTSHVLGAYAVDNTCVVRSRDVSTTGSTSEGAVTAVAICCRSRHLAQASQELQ

As a reminder, the IC50 is the concentration needed to halve the response being measured. A lower IC50 goes with inhibition by little substance. The substance H-LILPKHSDAD-OH came in with an IC50 of 1.6 µM.

These data come from BindingDB's records for doi:10.1016/j.bmcl.2018.02.046 (AstraZeneca, 2018).
